Assay results as given in patent US7595395B2, “Gabaergic agents to treat memory deficits” (priority 2005, dated 2009).
Where two headings read alike, the source gives them in different places.

How the values were obtained:
[1] = biological target: T1, α2β3γ2 benzodiazepine receptor GABA(A) isoform (UniProt P18507+P47869); assay: Radioligand competition binding, α2β3γ2 BzR/GABA(A) isoform; parameters: species or system human and rat
T1 sequence (P18507 1-475): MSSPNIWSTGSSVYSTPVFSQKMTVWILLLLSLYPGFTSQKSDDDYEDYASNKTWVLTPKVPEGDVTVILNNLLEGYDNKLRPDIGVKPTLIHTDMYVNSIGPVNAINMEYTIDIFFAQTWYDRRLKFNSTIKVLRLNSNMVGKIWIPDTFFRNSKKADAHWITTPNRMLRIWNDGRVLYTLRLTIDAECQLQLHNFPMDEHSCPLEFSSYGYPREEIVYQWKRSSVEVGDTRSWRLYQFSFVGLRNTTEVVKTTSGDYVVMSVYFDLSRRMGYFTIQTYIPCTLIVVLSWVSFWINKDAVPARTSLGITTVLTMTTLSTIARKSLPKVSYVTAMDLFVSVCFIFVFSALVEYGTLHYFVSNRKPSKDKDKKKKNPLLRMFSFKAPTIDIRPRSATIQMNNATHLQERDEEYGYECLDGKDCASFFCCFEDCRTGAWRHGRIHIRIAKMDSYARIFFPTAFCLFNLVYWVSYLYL
T1 sequence (P47869 1-451): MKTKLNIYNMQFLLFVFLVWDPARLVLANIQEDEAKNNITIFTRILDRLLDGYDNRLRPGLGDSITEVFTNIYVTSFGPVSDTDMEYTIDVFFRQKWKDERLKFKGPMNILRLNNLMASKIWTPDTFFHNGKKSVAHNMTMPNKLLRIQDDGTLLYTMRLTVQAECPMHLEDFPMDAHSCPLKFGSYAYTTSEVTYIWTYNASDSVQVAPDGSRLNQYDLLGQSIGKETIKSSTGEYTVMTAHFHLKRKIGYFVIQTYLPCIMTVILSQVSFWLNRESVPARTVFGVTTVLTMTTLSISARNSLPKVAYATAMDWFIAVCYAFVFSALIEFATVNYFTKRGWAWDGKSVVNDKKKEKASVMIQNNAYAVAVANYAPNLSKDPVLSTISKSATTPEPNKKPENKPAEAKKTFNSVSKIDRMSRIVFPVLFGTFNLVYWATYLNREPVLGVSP
Procedure: (§1) The affinity of all ligands at the 6 major recombinant GABAA/BzR subtypes was measured by competition for [^3H]Ro15-1788 binding to HEK-T cells expressing both human and rat GABAA/Bz receptors of composition α1β2γ2 (α1), α2β2γ2 (α2), α3β2γ2 (α3), α4β2γ2 (α4), α5β2γ2 (α5) and α6β2γ2 (α6). It is well known that the β2 and β3 subunits can be interchanged with no effect on Bz ligand affinity or efficacy. […] These studies are similar to those performed in the laboratory of Bryan Roth who has already expressed the receptors employing the work of Kucken et. al. and Gray et. al.
(§2) In brief, for membrane preparations, the cells were scraped on to the ice and diluted into 5 mL of phosphate buffered saline (pH=7.40) and cells pelleted by centrifugation for 5 min. at 4° C. The pellet was resuspended in 1 mL of 50 mM Tris-acetate buffer (pH 7.4) and centrifuged at 18,000 g for 20 min. […] Each pellet were diluted to 6 mL and then 100 μL of membranes were incubated with approximately 1 nM final concentration of [^3H]Ro 15-1788 in a total volume of 250 μL together with serial dilutions of test compound for 90 min. on ice. The membranes were harvested in polyethyleneimine-pretreated Whatman GF/C filters and after drying and addition of scintillation cocktail, counted in a scintillation counter. The cpm retained on the filters was plotted against log concentration (M) and fitted to one site competition equation to obtain the Ki using Graphpad Prizm (V4.0) using the Cheng-Prusoff approximation.

[2] = biological target: α6β3γ2 benzodiazepine receptor GABA(A) isoform (UniProt P18507+Q16445); assay: Radioligand competition binding, α6β3γ2 BzR/GABA(A) isoform; parameters: species or system human and rat
Procedure: as §1, §2

[3] = biological target: T2, α1β3γ2 benzodiazepine receptor GABA(A) isoform (UniProt P14867+P18507); assay: Radioligand competition binding, α1β3γ2 BzR/GABA(A) isoform; parameters: Ki α1; means of two determinations; Ki α1; α1; species or system human and rat
T2 sequence (P14867 1-456): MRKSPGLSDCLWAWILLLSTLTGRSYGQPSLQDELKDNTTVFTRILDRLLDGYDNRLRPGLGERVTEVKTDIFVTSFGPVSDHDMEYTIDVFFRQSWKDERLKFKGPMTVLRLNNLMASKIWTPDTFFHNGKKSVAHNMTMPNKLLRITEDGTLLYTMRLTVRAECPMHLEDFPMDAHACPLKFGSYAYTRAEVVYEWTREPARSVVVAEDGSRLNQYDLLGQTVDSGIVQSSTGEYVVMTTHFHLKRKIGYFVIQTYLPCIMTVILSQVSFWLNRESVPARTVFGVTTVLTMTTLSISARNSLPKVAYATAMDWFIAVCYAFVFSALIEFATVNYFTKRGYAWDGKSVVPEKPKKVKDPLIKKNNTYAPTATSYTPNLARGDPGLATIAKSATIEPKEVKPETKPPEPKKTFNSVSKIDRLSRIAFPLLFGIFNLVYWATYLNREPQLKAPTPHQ
T2 sequence (P18507 1-475): T1 sequence (P18507 1-475)
Procedure: as §1, §2

α5β3γ2 GABAA receptor = α5β3γ2 GABAA receptor (Rattus norvegicus, UniProt P18508+P19969); assay: Two-electrode voltage clamp in Xenopus oocytes, α5β3γ2; conditions: oocytes
[4] = biological target: T3, α5β3γ2 benzodiazepine receptor GABA(A) isoform (UniProt P18507+P31644); assay: Radioligand competition binding, α5β3γ2 BzR/GABA(A) isoform; parameters: Ki α5; means of two determinations; Ki α5; α5; other: text; species or system human and rat
T3 sequence (P18507 1-475): T1 sequence (P18507 1-475)
T3 sequence (P31644 1-462): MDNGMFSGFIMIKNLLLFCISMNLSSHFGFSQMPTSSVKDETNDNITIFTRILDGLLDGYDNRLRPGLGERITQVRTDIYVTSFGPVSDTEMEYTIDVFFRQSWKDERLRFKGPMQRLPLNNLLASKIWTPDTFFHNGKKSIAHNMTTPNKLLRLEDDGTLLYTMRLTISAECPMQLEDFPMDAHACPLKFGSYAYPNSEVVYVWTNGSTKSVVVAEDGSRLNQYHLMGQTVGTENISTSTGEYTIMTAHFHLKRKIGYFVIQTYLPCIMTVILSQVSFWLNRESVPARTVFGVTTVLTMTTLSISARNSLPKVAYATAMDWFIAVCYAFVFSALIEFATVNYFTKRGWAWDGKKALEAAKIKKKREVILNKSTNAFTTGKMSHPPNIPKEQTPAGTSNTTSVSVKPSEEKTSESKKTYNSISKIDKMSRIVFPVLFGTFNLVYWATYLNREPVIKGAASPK

[5] = read-out: α2, untitled table of lead compounds, unit inferred
[6] = read-out: α1, untitled table of lead compounds, unit inferred
[7] = read-out: α5, untitled table of lead compounds, unit inferred
[8] = read-out: Ki α2, Table I, means of two determinations
[9] = read-out: Ki α6, Table I, means of two determinations
[10] = read-out: α6, untitled table of lead compounds, unit inferred
[11] = read-out: Ki α1, Table I, means of two determinations
[12] = read-out: Ki α5, Table I, means of two determinations

α5β3γ2 GABAA receptor, sequence (P19969 26-464): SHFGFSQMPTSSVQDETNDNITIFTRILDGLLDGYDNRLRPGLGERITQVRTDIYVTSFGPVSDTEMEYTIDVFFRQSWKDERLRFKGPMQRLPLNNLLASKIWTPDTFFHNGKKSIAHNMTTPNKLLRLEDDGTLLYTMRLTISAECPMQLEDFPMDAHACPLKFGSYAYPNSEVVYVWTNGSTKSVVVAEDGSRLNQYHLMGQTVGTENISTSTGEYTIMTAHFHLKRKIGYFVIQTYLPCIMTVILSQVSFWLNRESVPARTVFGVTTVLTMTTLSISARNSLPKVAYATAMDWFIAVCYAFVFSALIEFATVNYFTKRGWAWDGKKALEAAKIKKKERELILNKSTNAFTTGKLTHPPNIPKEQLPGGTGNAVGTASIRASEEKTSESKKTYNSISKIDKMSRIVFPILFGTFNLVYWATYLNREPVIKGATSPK
α5β3γ2 GABAA receptor, sequence (P63079 26-473 partner): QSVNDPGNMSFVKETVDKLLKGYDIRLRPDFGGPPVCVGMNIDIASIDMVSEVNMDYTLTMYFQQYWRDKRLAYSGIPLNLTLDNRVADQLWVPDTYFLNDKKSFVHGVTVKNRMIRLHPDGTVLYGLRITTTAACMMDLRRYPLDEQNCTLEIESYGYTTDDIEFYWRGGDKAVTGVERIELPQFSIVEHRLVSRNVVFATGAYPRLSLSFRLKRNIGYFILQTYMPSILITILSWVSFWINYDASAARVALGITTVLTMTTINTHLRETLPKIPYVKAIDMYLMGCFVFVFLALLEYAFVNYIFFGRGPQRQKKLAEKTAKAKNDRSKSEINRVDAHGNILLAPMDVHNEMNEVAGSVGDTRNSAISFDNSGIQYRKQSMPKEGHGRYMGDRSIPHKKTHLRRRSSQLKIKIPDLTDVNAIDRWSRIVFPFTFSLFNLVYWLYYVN
α5β3γ2 GABAA receptor, sequence (P18508 39-466): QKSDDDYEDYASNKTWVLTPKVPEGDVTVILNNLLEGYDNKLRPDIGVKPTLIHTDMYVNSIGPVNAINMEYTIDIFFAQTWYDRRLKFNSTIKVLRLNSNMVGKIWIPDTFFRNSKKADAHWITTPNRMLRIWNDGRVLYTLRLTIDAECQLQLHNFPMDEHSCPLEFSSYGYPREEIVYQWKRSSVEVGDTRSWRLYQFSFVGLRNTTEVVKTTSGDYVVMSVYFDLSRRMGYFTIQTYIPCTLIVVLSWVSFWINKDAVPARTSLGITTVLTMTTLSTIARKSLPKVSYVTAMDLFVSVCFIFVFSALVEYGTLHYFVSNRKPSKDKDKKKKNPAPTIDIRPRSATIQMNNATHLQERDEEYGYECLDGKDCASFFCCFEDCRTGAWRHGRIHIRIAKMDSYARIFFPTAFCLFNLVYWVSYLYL

CCc1ccc2c(c1)C(=O)N(C)Cc1c(C(=O)OCCCOC(=O)c3ncn4c3CN(C)C(=O)c3cc(CC)ccc3-4)ncn1-2 [XLi356, 1,3-Bis(8-ethyl-5,6-dihydro-5-methyl-6-oxo-4H-imidazo[1,5a][1,4]benzodiazepine-3-carboxy)propyl diester]
Ki ([1]; read-out: Ki α2, Table 2, means of two determinations): 5980 nM
Ki [1, 5]: 5980 nM
Ki ([2]; read-out: Ki α6, Table 2, means of two determinations): 5000 nM
Ki ([3]; read-out: Ki α1, Table 2, means of two determinations): 2380 nM
Ki [3, 6]: 2380 nM
efficacy / modulation of GABA elicited currents at α5 (in words) (α5β3γ2 GABAA receptor; listed as XLi-356): clear agonist
efficacy / modulation of GABA elicited currents at α5 (in words) (α5β3γ2 GABAA receptor; listed as Xli356): appears to be an agonist
Ki ([4]; read-out: Ki α5, Table 2, means of two determinations): 107 nM
Ki [4, 7]: 107 nM

CCOC(=O)c1ncn2c1CN=C(c1ccccc1)c1cc(-c3ccccc3)ccc1-2 [DM-I-81, Ethyl 8-phenyl-6-phenyl-4H-benzo[f]imidazo[1,5-a][1,4]diazepine-3-carboxylate]
Ki [1, 8]: > 2000 nM
Ki [1, 5]: > 2000 nM
Ki [2, 9]: > 2000 nM
Ki [2, 10]: > 2000 nM
Ki [3, 11]: > 2000 nM
Ki [3, 6]: > 2000 nM
efficacy / modulation of GABA elicited currents at α5 (in words) (α5β3γ2 GABAA receptor): moderate agonist activity
Ki [4, 12]: 176 nM
Ki ([4]; read-out: binding potency at α5 subtypes): 174 nM
Ki [4, 7]: 176 nM

COCc1ncn2c1CN(C)C(=O)c1cc(Cl)ccc1-2 [PWZ-029, methyl(8-chloro-5,6-dihydro-5-methyl-6-oxo-4H-imidazo[1,5-α][1,4]benzodiazepin-3-yl)methyl ether]
Ki [1, 8]: > 300 nM
Ki [1, 5]: > 300 nM
Ki [2, 9]: > 300 nM
Ki [2, 10]: > 300 nM
Ki [3, 11]: > 300 nM
Ki [3, 6]: > 300 nM
efficacy / modulation of GABA elicited currents at α5 (in words) (α5β3γ2 GABAA receptor): selective inverse agonist
Ki [4, 12]: 38.8 nM
Ki [4, 7]: 38.8 nM
